Experimental data from US10259811B2, “Tank-binding kinase inhibitor compounds” (Gilead Sciences, Inc., priority 2014, dated 2019).

What was measured:
TBK1 = TBK1 (Homo sapiens (Human), UniProt Q9UHD2); experiment: TR-FRET enzymatic assay, phosphorylation of biotinylated serine/threonine peptide substrate (TBK1); details: read-out: TBK1-IC50; full length recombinant TBK1, 2×Km ATP (40-80 μM), 1 μM peptide, 240 minutes at 25° C.; geometric mean of minimum four determinations
Chain of TBK1 (Q9UHD2 whole entry): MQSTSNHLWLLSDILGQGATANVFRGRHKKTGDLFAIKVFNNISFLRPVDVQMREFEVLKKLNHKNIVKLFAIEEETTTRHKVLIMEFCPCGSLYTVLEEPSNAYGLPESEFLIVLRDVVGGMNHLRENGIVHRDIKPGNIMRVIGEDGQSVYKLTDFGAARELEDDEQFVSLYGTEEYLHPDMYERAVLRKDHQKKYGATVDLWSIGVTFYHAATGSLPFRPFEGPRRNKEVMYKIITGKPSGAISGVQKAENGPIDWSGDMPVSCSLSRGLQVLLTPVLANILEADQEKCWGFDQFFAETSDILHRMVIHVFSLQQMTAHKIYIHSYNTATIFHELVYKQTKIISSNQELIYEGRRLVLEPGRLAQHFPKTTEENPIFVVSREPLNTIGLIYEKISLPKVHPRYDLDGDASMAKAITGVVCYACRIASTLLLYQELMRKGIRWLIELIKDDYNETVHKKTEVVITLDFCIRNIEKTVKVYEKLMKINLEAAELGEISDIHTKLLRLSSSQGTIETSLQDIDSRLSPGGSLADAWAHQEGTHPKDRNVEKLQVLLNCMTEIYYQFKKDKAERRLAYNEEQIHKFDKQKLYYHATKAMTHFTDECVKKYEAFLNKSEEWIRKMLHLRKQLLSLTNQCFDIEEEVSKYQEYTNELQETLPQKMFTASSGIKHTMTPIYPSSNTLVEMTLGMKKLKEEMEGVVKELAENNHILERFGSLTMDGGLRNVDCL
Protocol: Enzymatic activity of IKKε and TBK1 was measured using a homogeneous time resolved fluorescence resonance energy transfer (TR-FRET) assay that monitors enzyme dependent phosphorylation of a biotinylated serine/threonine peptide substrate. […] TBK1 and IKKε were expressed and purified as full length recombinant proteins. Detection reagents for the assay were purchased from Cisbio. […] After an assay reaction time of 240 minutes at 25° C., reactions were terminated with EDTA.
Amount of phosphorylated peptide was determined by the addition of 125 nM streptavidin XL665 and europium cryptate labeled anti-phospho monoclonal antibody and the resulting TR-FRET signal was recorded on an Envision plate reader (Ex: 340 nm; Em: 615/665 nm; 100 μs delay and 200 μs read window). […] All IC50 values represent geometric mean values of a minimum of four determinations.

IKKε = IKKε (Homo sapiens (Human), UniProt Q14164); experiment: TR-FRET enzymatic assay, phosphorylation of biotinylated serine/threonine peptide substrate (IKKε); type: biochemical; details: full length recombinant IKKε at 0.3 nM, 2×Km ATP (40-80 μM), 1 μM peptide, 240 minutes at 25° C.; geometric mean of minimum four determinations
Chain of IKKε (Q14164 whole entry): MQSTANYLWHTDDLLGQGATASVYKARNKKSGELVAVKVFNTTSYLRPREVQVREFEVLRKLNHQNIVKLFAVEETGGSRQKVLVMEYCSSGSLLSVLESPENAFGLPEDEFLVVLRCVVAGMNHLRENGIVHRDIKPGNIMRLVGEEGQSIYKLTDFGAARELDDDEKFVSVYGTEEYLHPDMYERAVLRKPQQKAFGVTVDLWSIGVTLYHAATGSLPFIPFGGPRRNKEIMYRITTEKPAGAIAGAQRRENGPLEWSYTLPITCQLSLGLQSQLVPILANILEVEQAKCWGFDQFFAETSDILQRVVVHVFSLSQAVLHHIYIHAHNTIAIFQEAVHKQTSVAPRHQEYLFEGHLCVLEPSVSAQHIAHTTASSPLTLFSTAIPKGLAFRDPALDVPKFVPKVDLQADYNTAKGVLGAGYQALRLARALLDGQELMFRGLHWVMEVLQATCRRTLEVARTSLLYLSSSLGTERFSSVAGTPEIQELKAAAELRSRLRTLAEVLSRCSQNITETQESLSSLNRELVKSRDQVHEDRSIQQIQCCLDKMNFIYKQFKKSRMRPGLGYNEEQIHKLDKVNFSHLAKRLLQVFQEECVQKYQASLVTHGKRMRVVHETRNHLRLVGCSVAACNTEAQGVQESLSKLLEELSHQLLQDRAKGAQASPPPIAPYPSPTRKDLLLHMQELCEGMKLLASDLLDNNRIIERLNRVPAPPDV
Excerpt: Biological Assay for TBK1 and IKKε:

For “5-(6-(4-(4-(2,2-difluoroethyl)piperazin-1-yl)phenyl)-7H-pyrrolo[2,3-d]pyrimidin-4-yl)-2-((1-(2-hydroxyacetyl)piperidin-4-yl)oxy)benzonitrile [Example 264]”, the IC50 (TBK1) was 0.91 nM.

In the case of Cc1nc(-c2ccc(OC3CCOCC3)c(C#N)c2)c2nc(-c3ccc(N4CCOCC4)cc3)[nH]c2n1 [Example 214, 5-(2-methyl-8-(4-morpholinophenyl)-9H-purin-6-yl)-2-((tetrahydro-2H-pyran-4-yl)oxy)benzonitrile], the IC50 (IKKε) is reported as over 1000 nM and the IC50 (TBK1) is reported as over 1000 nM.

“5-(6-(1,4-dioxaspiro[4.5]dec-7-en-8-yl)-7H-pyrrolo[2,3-d]pyrimidin-4-yl)-2-((1-(2-hydroxyacetyl)piperidin-4-yl)oxy)benzonitrile [Example 175]” showed an IC50 (IKKε) of 5.84 nM.

With “5-(6-(4-(4-(2,2-difluoroethyl)piperazin-1-yl)phenyl)-7H-pyrrolo[2,3-d]pyrimidin-4-yl)-2-(piperidin-4-yloxy)benzonitrile [Example 265]” the IC50 (IKKε) was 58.7 nM and the IC50 (TBK1) was 16.2 nM.

For N#Cc1cc(-c2ncnc3[nH]c(-c4ccc(N5CCOCC5)c(F)c4)nc23)ccc1OC1CCN(C(=O)CO)CC1 [Example 241, 5-(8-(3-fluoro-4-morpholinophenyl)-9H-purin-6-yl)-2-((1-(2-hydroxyacetyl)piperidin-4-yl)oxy)benzonitrile], the IC50 (IKKε) was 1.3 nM and the IC50 (TBK1) was 2.64 nM.
